“Also recorded” adds a separate entry of the source. Counter-ions that a name gives are not always drawn. Like-named read-outs stand apart in the source and are kept apart here.
Tests used:
human CB CD34+ cells = assay: Ex vivo expansion of cord blood CD34+ cells in HSC media with small molecules; type: cell-based; conditions: for retention/expansion of CD34+CD38− stem/progenitor cells compared to control: 5 days, HSC media with SCF, TPO, Flt-3 ligand 100 ng/ml each, Z 100 nM, Bix 1 μM, T 10 μM
Description: (§1) CD34+ cells were cultured in […] medium ([…] Technologies, Vancouver, BC, Canada) supplemented with 10% FBS, 100 ng/ml hSCF (human stem cell factor), 100 ng/ml hTPO (human thrombopoietin), 100 ng/ml hFLT-3 ligand (Human Fms-related Tyrosine Kinase 3) (Peprotech, Rocky Hill, N.J., USA) and 100 U/ml penicillin/streptomycin (Gibco). Human cortex Neural Progenitor Cell line (hcx NSC) was maintained in ReNcell medium: ReNcell NSC Maintenance medium (Millipore) supplemented with 20 ng/ml human EGF, 20 ng/ml human bFGF (Peprotech) and 100 U/ml penicillin/streptomycin. For expansion of cells targeted for cell sorting, we used the same media containing a different cytokine cocktail of 100 ng/ml SCF, TPO and 10 ng/ml IL-3.
Cells were centrifuged for 5 minutes at 200 G at 4° C. Cells were resuspended with CD34, 38 and/or 41 conjugated antibodies for 30 minutes on ice. Cells were then washed with 2 ml of PBS and centrifuged for 5 minutes at 200 G at 4° C. The final pellet was resuspended using 300 μl of 2% formalin. […]
Recent studies in iPS cell reprogramming have discovered numerous small molecules modulating iPS cell reprogramming through different cellular mechanisms. These could include cellular signaling pathways (such as Wnt signaling and TGF beta) and epigenetic mechanisms, such as DNA methyltransferases, histone methylation and histone deacetylation. We have screened small molecule modulators involving these cellular mechanisms for hematopoietic stem/progenitor cell expansion. […] CB CD34+ cells were cultured for 5 days in HSC media containing SCF, TPO, and Flt-3 ligand at 100 ng/ml each. […] Bix (BIX01294), trihydrochloride hydrate is a histone methyltransferase (HMTase) G9a inhibitor (FIG. 15).
Previously we have shown that stem cell protein is a robust stimulator for hematopoietic stem/progenitor cell expansion via recruitment of various epigenetic factors such as histone deacylases and DNA methyltransferases (Yang et al, J Biol Chem. 2012, 13; 287(3): 1996-2005). […] Based on this finding, we screened the LSD1 inhibitors for the expansion of hematopoietic precursor cells. hUCB CD34+ cells were cultured for 5 days in HSC media containing SCF, TPO, and Flt-3 ligand at 100 ng/ml each.

[1] = test system: hematopoietic stem/progenitor cells; assay: Dose determination of BIX, Z and UNC on expansion of hematopoietic stem/progenitor cells; type: cell-based; conditions: at concentrations of 0.25×
Text: The inventors have also determined the dose for BIX, Z and UNC on the expansion of hematopoietic stem/progenitor cells. […] UNC (UNC0638) and BIX are quite similar in their impact of expansion of hematopoietic stem/progenitor cells.

[2] = test system: CD34+ cells isolated from peripheral blood of G-CSF-mobilized donors; assay: Ex vivo culture of mobilized peripheral blood CD34+ cells with compounds, CD34/CD38 flow cytometry; type: cell-based, human; conditions: 11 days, minimal cytokines; for effect on CD34+CD38+ and CD34+CD38− populations: C, 6, F at 10 μM, Z at 100 nM
Description: CD34+ cells were isolated from cord blood or from peripheral blood of G-CSF-mobilized adult donors and cultured as follows. Mononuclear cells (MNCs) were isolated using a simple red blood cell lysis (15 minutes at room temperature using BD PharmLyse) or using Ficoll-Paque density gradient centrifugation (Jaatinen and Laine, Current Protocols Stem Cell Biol. 1:2A.1.1-2A.1.4. (2007)). The cells were then incubated with MACS CD34+ Microbead kit (Miltenyi Biotec, Auburn, Calif.) and run through a magnetic column resulting in selection for CD34+ cells. […] Human cortex neural stem cell (hcx NSC) cells were purchased from Millipore.
as §1
Cells were centrifuged for 5 minutes at 200 G at 4° C. Cells were resuspended with CD34, 38 and/or 41 conjugated antibodies for 30 minutes on ice. Cells were then washed with 2 ml of PBS and centrifuged for 5 minutes at 200 G at 4° C. The final pellet was resuspended using 300 μl of 2% formalin.
CD34+ cells isolated from peripheral blood of G-CSF-mobilized donors were cultured for 11 days with minimal cytokines and the 4 chemical cocktail (C6FZ). […] The population bearing CD34+/CD38− is associated with long-term repopulating HSCs.
CD34+ cells isolated from the peripheral blood of G-CSF-mobilized donors were next cultured for 11 days with minimal cytokines and the individual compounds, C, 6, F and Z (FIG. 13).

[3] = test system: CD34+ cells isolated from human umbilical CB; type: cell-based; conditions: for number of large megakaryocytes / shortening of maturation compared to control: 4-5 day culture; for ploidy development compared to control or 616452 alone: 4 and 8 days induction; for CD41 population compared to control: 4 days of culture, flow analysis
Description: Megakaryocytes derived from CB in vitro are usually smaller than megakaryocytes derived from bone marrow or mobilized peripheral blood from adults. Small megakaryocyte size may contribute to delayed platelet engraftment when cord blood is used for bone marrow transplantation. To test whether 616452 is able to increase fetal/neonatal megakaryocyte size and ploidy, CD34+ cells isolated from human umbilical CB were cultured in StemSpan SFEM containing SCF, TPO and Flt-3 Ligand. CB CD34+ cells in the presence of TPO after 4 or 8 day culture, were morphologically consistent of a relative homogenous population of small cells (FIG. 19A) and megakaryocytic features such as large nuclear size and cytoplasmic mass were hardly detectable.
One of the unique characteristics of megakaryocytes is the ploidy development of their nuclei, which can be easily measured using propidium iodide (PI), a fluorescent intercalating agent that binds to nucleic acids. Megakaryocyte (Mk) ploidy correlates well with their maturation and platelet production. […] Out of 10,000 events, the control cells only elicited only 1 cell with a ploidy of 16N and nothing thereon greater (FIG. 20A).

For `Cl.N[C@H]1C[C@@H]1c1ccccc1` (racemic) [T, (±)-trans-2-Phenylcyclopropylamine hydrochloride], the “fold increase in CD34+CD38− cells compared to the input” value (human CB CD34+ cells; 10 μM, 5 day culture) was “approximately 60 fold”, the “fold increase in total cell counts compared to the input” value (human CB CD34+ cells; 10 μM, 5 day culture) was about 45 fold and the “retention/expansion of CD34+CD38− stem/progenitor cells compared to control” value (human CB CD34+ cells; hydrochloride) was “retained a significant fraction of CD34+CD38− cells and expanded this population; also recorded: promotes hematopoietic precursor immunophenotype and expands CD34+CD38− population”.

In the case of `COc1cc2nc(N3CCCN(C)CC3)nc(NC3CCN(Cc4ccccc4)CC3)c2cc1OC` [Bix, 2-(Hexahydro-4-methyl-1H-1,4-diazepin-1-yl)-6,7-dimethoxy-N-[1-(phenylmethyl)-4-piperidinyl]-4-quinazolinamine trihydrochloride hydrate], the “retention/expansion of CD34+CD38− stem/progenitor cells compared to control” value (human CB CD34+ cells; trihydrochloride hydrate) is reported as “retained a large portion of CD34+CD38− stem/progenitor cells; also recorded: enhances retention and expansion of CD34+CD38-population” and the toxicity [1] is reported as “no significant toxicity”.

With `Cc1c[nH]c(-c2cnc(NCCNc3ccc(C#N)cn3)nc2-c2ccc(Cl)cc2Cl)n1` [CHIR99021, 6-[[2-[[4-(2,4-dichlorophenyl)-5-(5-methyl-1H-imidazol-2-yl)-2 pyrimidinyl]amino]ethyl]amino]-3-pyridinecarbonitrile] the “effect on CD34+CD38+ and CD34+CD38− populations” value ([2]; listed as C) was “does not have much of effect; also recorded: did not have much of effect” and the “proliferation and maturation of CD34+ cells compared to control” value ([2]; listed as C) was “rapidly proliferates bone marrow CD34 cells leading to their maturation at a significantly rapid rate compared to control; also recorded: rapidly proliferated the bone marrow CD34+ cells, leading to their maturation at a significantly rapid rate compared to control”.

With `C=C[C@@]1(C)CC(=O)[C@]2(O)[C@@]3(C)[C@@H](O)CCC(C)(C)[C@@H]3[C@H](O)[C@H](OC(C)=O)[C@@]2(C)O1` [F, 7β-acetoxy-8,13-epoxy-1α,6β,9α-trihydroxylabd-14-en-11-one] the “effect on CD34+CD38+ and CD34+CD38− populations” value [2] was “induce a significant proportion of CD34+CD38+ population; also recorded: induce a significant proportion of CD34+CD38+ cells; also recorded: induced a significant expansion of CD34+CD38+”.

For `NC(=O)c1ccc(-c2nc(-c3ccc4c(c3)OCO4)c(-c3ccccn3)[nH]2)cc1` [SB431542, 4-[4-(1,3-benzodioxol-5-yl)-5-(2-pyridinyl)-1H-imidazol-2-yl]benzamide], the “number of large megakaryocytes / shortening of maturation compared to control” value [3] was “little or no effect”, the “ploidy development compared to control or 616452 alone” value [3] was “no significant deviation in ploidy development” and the “ploidy development compared to control or 616452 alone” value ([3]; listed as SB431452) was “no significant difference”. For the same molecule, the “CD41 population compared to control” value [3] was “marginal decrease in the CD41 population”.

With `COc1cc2c(NC3CCN(C(C)C)CC3)nc(C3CCCCC3)nc2cc1OCCCN1CCCC1` [UNC, 2-Cyclohexyl-6-methoxy-N-[1-(1-methylethyl)-4-piperidinyl]-7-[3-(1-pyrrolidinyl)propoxy]-4-quinazolinamine] the toxicity [1] was “no significant toxicity”.

`Cc1cccc(-c2nn(C(=S)Nc3ccccc3)cc2-c2ccnc3ccccc23)n1` [compound 616454, 3-(6-Methylpyridin-2-yl)-4-(4-quinolyl)-1-phenylthiocarbamoyl-1H-pyrazole] was tested, and the “number of large megakaryocytes / shortening of maturation compared to control” value [3] was “little or no effect” and the “CD41 population compared to control” value [3] was “no any significant difference from control”.
